What was measured:
wheat [1] = test: Test C postemergence; assay type: in vivo, Triticum aestivum; details: 10 days, 0 to 100 scale (0 no effect, 100 complete control)
Method in brief: (§1)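 Soil-applied (pre) and foliar (post, 1–2 leaf, 2–10 cm) sprays; surfactant-containing non-phytotoxic solvent vehicle; loam/sand substrate. Readout: visual % control at 10 d, greenhouse, versus untreated.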

oat, wild [2] = test: Test C preemergence; assay type: in vivo, Avena fatua
Method in brief: as §1

sedge, umbrella = test: Test D flooded paddy test; assay type: in vivo, Cyperus difformis; details: 250 g ai/ha, applied to paddy water, visual rating after 13 to 14 days, scale 0 to 100 (0 no effect, 100 complete control)
Method in brief: (§2)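 Compounds go straight into paddy water over 2-leaf plants in pots flooded to 3 cm. Greenhouse holding lasts 13 to 14 days. Injury is scored by eye against controls from 0 (none) to 100 (complete control).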

galium = test: Test C postemergence; assay type: in vivo, Galium aparine; details: 10 days, 0 to 100 scale (0 no effect, 100 complete control)
Method in brief: as §1

soybean [3] = test: Test C preemergence; assay type: in vivo, Glycine max
Method in brief: as §1

corn [4] = test: Test C postemergence; assay type: in vivo, Zea mays; details: 10 days, 0 to 100 scale (0 no effect, 100 complete control)
Method in brief: as §1

horseweed = test: Test C postemergence; assay type: in vivo, Erigeron canadensis; details: 10 days, 0 to 100 scale (0 no effect, 100 complete control)
Method in brief: as §1

barnyardgrass [5] = test: Test D flooded paddy test; assay type: in vivo, Echinochloa crus-galli; details: 250 g ai/ha, applied to paddy water, visual rating after 13 to 14 days, scale 0 to 100 (0 no effect, 100 complete control)
Method in brief: as §2

kochia [6] = test: Test C postemergence; assay type: in vivo, Bassia scoparia; details: 10 days, 0 to 100 scale (0 no effect, 100 complete control)
Method in brief: as §1

ryegrass, Italian [7] = test: Test C postemergence; assay type: in vivo, Lolium multiflorum; details: 10 days, 0 to 100 scale (0 no effect, 100 complete control)
Method in brief: as §1

blackgrass [8] = test: Test C postemergence; assay type: in vivo, Alopecurus myosuroides; details: 10 days, 0 to 100 scale (0 no effect, 100 complete control)
Method in brief: as §1

ragweed [9] = test: Test C postemergence; assay type: in vivo, Ambrosia artemisiifolia; details: 10 days, 0 to 100 scale (0 no effect, 100 complete control)
Method in brief: as §1

barnyardgrass [10] = test: Test C postemergence; assay type: in vivo, Echinochloa crusgalli; details: 10 days, 0 to 100 scale (0 no effect, 100 complete control)
Method in brief: as §1

green foxtail [11] = test: Test C preemergence; assay type: in vivo, Setaria viridis
Method in brief: as §1

ryegrass, Italian [12] = test: Test C preemergence; assay type: in vivo, Lolium multiflorum
Method in brief: as §1

ducksalad = test: Test D flooded paddy test; assay type: in vivo, Heteranthera limosa; details: 250 g ai/ha, applied to paddy water, visual rating after 13 to 14 days, scale 0 to 100 (0 no effect, 100 complete control)
Method in brief: as §2

soybean [13] = test: Test C postemergence; assay type: in vivo, Glycine max; details: 10 days, 0 to 100 scale (0 no effect, 100 complete control)
Method in brief: as §1

green foxtail [14] = test: Test C postemergence; assay type: in vivo, Setaria viridis; details: 10 days, 0 to 100 scale (0 no effect, 100 complete control)
Method in brief: as §1

wheat [15] = test: Test C preemergence; assay type: in vivo, Triticum aestivum
Method in brief: as §1

ragweed [16] = test: Test C preemergence; assay type: in vivo, Ambrosia artemisiifolia
Method in brief: as §1

rice = test: Test D flooded paddy test; assay type: in vivo, Oryza sativa; details: 250 g ai/ha, applied to paddy water, visual rating after 13 to 14 days, scale 0 to 100 (0 no effect, 100 complete control)
Method in brief: as §2

pigweed, palmer [17] = test: Test C preemergence; assay type: in vivo, Amaranthus palmeri
Method in brief: as §1

barnyardgrass [18] = test: Test C preemergence; assay type: in vivo, Echinochloa crusgalli
Method in brief: as §1

pigweed, palmer [19] = test: Test C postemergence; assay type: in vivo, Amaranthus palmeri; details: 10 days, 0 to 100 scale (0 no effect, 100 complete control)
Method in brief: as §1

corn [20] = test: Test C preemergence; assay type: in vivo, Zea mays
Method in brief: as §1

kochia [21] = test: Test C preemergence; assay type: in vivo, Bassia scoparia
Method in brief: as §1

blackgrass [22] = test: Test C preemergence; assay type: in vivo, Alopecurus myosuroides
Method in brief: as §1

oat, wild [23] = test: Test C postemergence; assay type: in vivo, Avena fatua; details: 10 days, 0 to 100 scale (0 no effect, 100 complete control)
Method in brief: as §1

[24] = 500 g ai/ha, preemergence, 0 to 100 scale (0 no effect, 100 complete control)
[25] = Preemergence, 125 g ai/ha, 0 to 100 scale, 0 no effect, 100 complete control

Cc1ccc(-n2cnc(C(C)(C)C)n2)cc1C(=O)N1CC(C(F)(F)F)Oc2c(Cl)cccc21 (stereo not shown) [Compound 350]
Plant response rating, Wheat (wheat [1]; 500 g ai/ha, postemergence): 10
Plant response rating, Wheat (wheat [1]; Postemergence, 125 g ai/ha): 10
Oat, Wild plant response rating (oat, wild [2]; [24]): 50
Plant response rating, Oat, Wild (oat, wild [2]; [25]): 30
Plant response rating, Sedge, Umbrella (Flood) (sedge, umbrella): 0
Plant response rating, Galium (galium; 500 g ai/ha, postemergence): 100
Plant response rating, Galium (galium; Postemergence, 125 g ai/ha): 80
Soybean plant response rating (soybean [3]; [24]): 90
Plant response rating, Soybean (soybean [3]; [25]): 90
Plant response rating, Corn (corn [4]; 500 g ai/ha, postemergence): 20
Plant response rating, Corn (corn [4]; Postemergence, 125 g ai/ha): 10
Plant response rating, Horseweed (horseweed; 500 g ai/ha, postemergence): 40
Plant response rating, Horseweed (horseweed; Postemergence, 125 g ai/ha): 40
Plant response rating, Barnyardgrass (Flood) (barnyardgrass [5]): 0
Plant response rating, Kochia (kochia [6]; 500 g ai/ha, postemergence): 90
Plant response rating, Kochia (kochia [6]; Postemergence, 125 g ai/ha): 70
Plant response rating, Ryegrass, Italian (ryegrass, Italian [7]; 500 g ai/ha, postemergence): 30
Plant response rating, Ryegrass, Italian (ryegrass, Italian [7]; Postemergence, 125 g ai/ha): 10
Plant response rating, Blackgrass (blackgrass [8]; 500 g ai/ha, postemergence): 20
Plant response rating, Blackgrass (blackgrass [8]; Postemergence, 125 g ai/ha): 10
Plant response rating, Ragweed (ragweed [9]; 500 g ai/ha, postemergence): 50
Plant response rating, Ragweed (ragweed [9]; Postemergence, 125 g ai/ha): 30
Plant response rating, Barnyardgrass (barnyardgrass [10]; 500 g ai/ha, postemergence): 30
Plant response rating, Barnyardgrass (barnyardgrass [10]; Postemergence, 125 g ai/ha): 10
Foxtail, Green plant response rating (green foxtail [11]; [24]): 100
Plant response rating, Foxtail, Green (green foxtail [11]; [25]): 100
Ryegrass, Italian plant response rating (ryegrass, Italian [12]; [24]): 100
Plant response rating, Ryegrass, Italian (ryegrass, Italian [12]; [25]): 100
Plant response rating, Ducksalad (Flood) (ducksalad): 0
Plant response rating, Soybean (soybean [13]; 500 g ai/ha, postemergence): 100
Plant response rating, Soybean (soybean [13]; Postemergence, 125 g ai/ha): 100
Plant response rating, Foxtail, Green (green foxtail [14]; 500 g ai/ha, postemergence): 80
Plant response rating, Foxtail, Green (green foxtail [14]; Postemergence, 125 g ai/ha): 30
Wheat plant response rating (wheat [15]; [24]): 30
Plant response rating, Wheat (wheat [15]; [25]): 30
Ragweed plant response rating (ragweed [16]; [24]): 60
Plant response rating, Ragweed (ragweed [16]; [25]): 20
Plant response rating, Rice (Flood) (rice): 0
Pigweed, Palmer plant response rating (pigweed, palmer [17]; [24]): 100
Plant response rating, Pigweed, Palmer (pigweed, palmer [17]; [25]): 100
Barnyardgrass plant response rating (barnyardgrass [18]; [24]): 100
Plant response rating, Barnyardgrass (barnyardgrass [18]; [25]): 50
Plant response rating, Pigweed, Palmer (pigweed, palmer [19]; 500 g ai/ha, postemergence): 100
Plant response rating, Pigweed, Palmer (pigweed, palmer [19]; Postemergence, 125 g ai/ha): 100
Corn plant response rating (corn [20]; [24]): 0
Plant response rating, Corn (corn [20]; [25]): 0
Kochia plant response rating (kochia [21]; [24]): 80
Plant response rating, Kochia (kochia [21]; [25]): 50
Blackgrass plant response rating (blackgrass [22]; [24]): 50
Plant response rating, Blackgrass (blackgrass [22]; [25]): 20
Plant response rating, Oat, Wild (oat, wild [23]; 500 g ai/ha, postemergence): 10
Plant response rating, Oat, Wild (oat, wild [23]; Postemergence, 125 g ai/ha): 0
